Measurements: patent US12551479B2, “Acyl-protein thioesterase inhibitor for the treatment and/or prevention of Huntington's disease” (UNIVERSITÉ GRENOBLE ALPES, priority 2019, dated 2026)

How the values were obtained:
[1] = test system: cortical neurons derived from human induced pluripotent stem cells (iPSCs) from Huntington's disease patients; test: BDNF-mCherry axonal trafficking in hiPSC-derived cortical neurons in microfluidic device; assay type: cell-based; settings: 1 μM daily for 7 days vs DMSO
Protocol: Referring to FIG. 7A, the inventors again reproduced the corticostriatal network in vitro on a microfluidic device consisting of two neuronal chambers that are connected via microchannels. Experiments are performed over a period ranging from 0 to 40 days in vitro (DIV), the first 20 days for neuronal cell generation and differentiation of hiPSCs, followed by the introduction of the cells into the microfluidic device. 3 hours after introduction, cells were infected from the pre-synaptic compartment with a lentivirus encoding BDNF-mCHerry.
The human iPSC line ND42222 (RRID:CVCL_Y844 passage 42) “109Q” was obtained from Coriell Cell Repositories. This line is heterozygous for HTT p.Gln18[109] and therefore has 109 CAG repeats in one of the two HTT alleles. Amplification of human iPSCs, generation of neuronal cells and terminal differentiation were performed according to the work published in Gribaudo S. et al. (Stem Cell Reports 12, 230-244, 2019). 109Q cells were maintained on Vitronectin-coated plates (Life Technology) in mTeSRplus medium ([…] Technologies). Cultures were fed every other day and passaged by manual dissociation using 0.02% EDTA pH 7.2 (Merck Sigma-Aldrich) every 4-5 days. For neuronal differentiation, hiPSC colonies were treated (DIV0) as previously described (Nicoleau et al., 2013) in N2B27 medium consisting of 50% DMEMF-12 Glutamax, 50% neurobasal medium, 2% B27 supplement 50× without vitamin A, 1% N2 supplement, 0.1% penicillin streptomycin, and 50 μM β-mercaptoethanol (Thermofisher). Neuronal differentiation was initiated by passage of hiPSCs in N2B27 medium supplemented with SB431542 (20 μM, Tocris), LDN-193189 (100 nM, Sigma Aldrich) and XAV_939 (1 μM, Tocris) and 10 μM ROCK inhibitor (Y27632, Calbiochem) on low-adhesion culture plates (Greiner) for 6 hours. The medium was changed every day from DIV0 to DIV20. At DIV1, hiPSC aggregates were transferred to laminin poly-ornitine-coated dishes without Y27632. From DIV5 to DIV9, SB431542 was removed and FGF2 (10 ng/ml) and cyclopamine 1 μM (Merck) were added. […]

[2] = test system: ERK phosphorylation; test: Postsynaptic signaling: phosphoERK immunopositive striatal neurons after glycine/strychnine stimulation; assay type: cell-based, mouse; settings: Hdh^CAG/+ neurons, 1 μM daily; glycine/strychnine 15 minutes
Protocol: For striatal StHdh cells, acute treatment was performed at 10 μM for 1 hour before and during the acquisition time. For neurons within the microchambers, treatments were started at DIV2 until DIV12 every day at 1 μM in each compartment of the microfluidic device.
They used ERK phosphorylation as the readout of the postsynaptic signaling. […] The inventors stimulated cortical neurons for 15 minutes with glycine/strychnine and quantified the percentage of striatal neurons immunopositive for phosphoERK (FIG. 3J).

[3] = test system: melanoma cells; settings: studies of Vujic et al., 2015; cited from earlier work
[4] = test system: Hdh^CAG140/+ mice; test: Rotarod test; assay type: in vivo, mouse; settings: Hdh^CAG/+ mice
Protocol: Mice littermates were grouped into mixed treatment groups. Males and females were 6 months of age at the beginning of the treatment. For each specific test, all experimental groups were tested on the same day, during the light phase and between Days 16 and 28 of treatment. Prior to testing, mice were acclimatized to the test room for a period of 30 minutes. Treatments were randomly assigned and behavioral tests were performed 12 days before the end of the delivery of the treatment. […] Mice were excluded from analysis if their performance was calculated as a significant outlier by the Grubb test. One mouse was excluded based on these criteria. Mouse weights were measured prior to the start of treatment and until the end of testing.
The Rotarod apparatus was used to measure motor coordination and balance. Rotarod test was performed over 6 consecutive days, with 3 days of accelerated rotarod and then 3 days of fixed rotarod. […] The latency and speed at which mice fall off from the rotarod were measured up to 300 sec. For a fixed rotarod, mice were evaluated for 3 trials at 10, 15, and 20 rpm on days 4, 5, and 6, respectively. […] Data are expressed as the average of the 3 trials.

[5] = Pharmacokinetics after intraperitoneal injection, plasma and brain by LC-MS/MS; assay type: in vivo; settings: mice, 2 mg/kg intraperitoneal
Protocol: The ability of the ML-348 molecule to freely cross the blood brain barrier is an additional argument towards the efficacy of the molecule in vivo in mice.
Plasma proteins were precipitated by adding 800 μL acetonitrile into 400 μL of sample. Brains were ground into 400 μL H2O before adding 800 μL acetonitrile. Samples were centrifuged to remove insoluble residues at 15.000 g for 5 minutes at 16° C. Supernatants were analyzed by LC-MS/MS. LC-MS/MS was assessed by high-performance liquid chromatography (UHPC) coupled with a triple quadrupole (Shimadzu LC-MS 8030). Analyses were performed from 3 mice for each time point.
Before investigating ML-348 in vivo, the inventors first evaluated the pharmacokinetics of the molecule. […] They then evaluated the efficacy of the molecule to increase brain palmitoylation level 30 minutes after injection. For this purpose, they performed an Acyl-Biotin-Exchange (ABE) assay to biotinylate palmitoylated proteins before their immunoprecipitation with streptavidin-coated beads (FIG. 4D).

SMILES: O=C(CN1CCN(C(=O)c2ccco2)CC1)Nc1cc(C(F)(F)F)ccc1Cl [ML-348]
- anterograde and retrograde transport velocities of BDNF-mCherry vesicles [1]: not statistically significant
- linear net flow [1]: significantly increased
- number of vesicles moving in either direction (anterograde, retrograde) [1]: significantly increased
- percentage of immunopositive phosphoERK cells in the postsynaptic space [2]: restore postsynaptic signaling to values encountered in wild-type neurons
- effect on melanoma cells [3]: no biologically significant effect
- average speed achieved on accelerated rotarod ([4]; 4 to 40 rpm in 600, 300, 120 s, statistically significant in the 300 s condition): recover motor coordination close to that of wild-type mice
- performance on fixed speed rotarod ([4]; constant speed 10 and 15 rpm): significantly improved the performances
- crossing of the blood brain barrier ([Brain]/[Plasma] values) ([5]; 30, 60 and 180 minutes): effectively crosses the blood brain barrier
- degradation after injection (plasma and brain levels) ([5]; 60 minutes after injection): rapidly degraded
